“Also recorded” adds a separate entry of the source.
Experiments:
Format in all cases: cell-based, human
[1] = tested on: HLA-A, HLA-B, HLA-C, PSMB8, PSMB9, PSMB10 mRNA; assay: mRNA levels of MHC-I and immunoproteasome genes (RT-PCR, RNA-seq); settings: MB135iDUX4 cells
Experimental: Myoblasts were transfected with either (final concentrations) 10 μM 2′,3′-cGAMP (Sigma Aldrich), 2 μg/mL poly(I:C) (Invitrogen), or 1 μg/mL 3′ppp-dsRNA RIG-I ligand (Dan Stetson Lab, UW) using Lipofectamine 2000 according to manufacturer's protocol, or were stimulated with 1000U IFNβ (PeproTech) or 200 ng/ml IFNγ (R+D Systems) by addition directly to cell culture medium. After 16 hours of immune stimulation, RNA was collected from cells using the NucleoSpin RNA Kit (Macherey-Nagel) according to manufacturer's instructions. RNA samples were quantified by nanodrop and 1 μg of RNA per sample was treated with DNase I Amplification Grade (Thermo Fisher), and then synthesized into cDNA using the Superscript IV First-Strand Synthesis System, including oligo dT primers (Invitrogen). qPCR was run in 384-well plates on an Applied Biosystems QuantStudio 6 Flex Real-Time PCR System (ABI) and analyzed in Microsoft Excel.
Total RNA was isolated using the NucleoSpin RNA kit (Machery-Nagel) or Direct-zol RNA Mini-Prep Kit (Zymo Research) according to manufacturer's instructions. RNA-seq libraries were prepared using the Illumina TruSeq RNA Sample Prep v2 Kit and sequenced using 50 bp paired-end sequencing on the Illumina NextSeq platform by the Fred Hutchinson Cancer Center Genomics Core.

[2] = tested on: translational efficiency (TE); assay: Ribosome footprinting (Ribo-seq) paired with RNA-seq; settings: DUX4 pulse+IFNG versus IFNG, 68 hours
Experimental: Ribo-seq was performed as described previously (Calviello et al., 2016) using two 70% confluent 15 cm plates of MB135iDUX4 myoblasts per treatment condition (n=3). MB135iDUX4 myoblasts were pulsed with or without doxycycline for 4 hours, incubated for 48 hours, supplemented with or without 50 ng/mL IFNG for 16 hours, and harvested at a terminal time point of 68 hours. To harvest, media was aspirated and each 15 cm plate of adherent cells was rinsed with 25 mL ice-cold PBS supplemented with 100 μg/mL cycloheximide (Sigma). After thorough removal of the PBS, plates were immersed in liquid nitrogen and placed on dry ice. Cells were lysed in mammalian polysome lysis buffer (20 mM Tris-HCl, pH 7.4, 150 mM NaCl, 5 mM MgCl2, 1 mM DTT, 100 μg/mL cycloheximide added fresh) supplemented with 1% Triton X-100 and 25 U/ml Turbo DNase (Ambion), transferred to wet ice, harvested by scraping and further lysed by trituration ten times through a 26-gauge needle. Lysates were cleared by centrifugation at 20,000×g for 10 min at 4° C., flash frozen in liquid nitrogen, and stored at −80° C. To isolate ribosome-protected RNA fragments, lysates were thawed, digested with 2.5 U/μL RNase I (Ambion) for 45 minutes at room temperature with gentle mixing, and treated with 0.65 U/μL SUPERaseIn RNase Inhibitor (Thermo Fisher Scientific) to stop nuclease activity. Ribosome complexes were isolated using MicroSpin S-400 HR Columns (GE Healthcare) and RNA extracted using the Direct-zol RNA Miniprep Kit (Zymo Research). The rRNA Removal Mix—Gold component of Illumina's TruSeq Stranded Total RNA Library Prep Gold kit was used to deplete rRNAs. Samples were precipitated using GlycoBlue Coprecipitant (Ambion) as carrier, 0.1 volume 3M sodium acetate and 3 volumes 100% Ethanol, incubated at −80° C. overnight, centrifuged for 45 minutes at 20,000×g at 4° C., and RNA pellet dissolved in nuclease-free ultrapure water. Ribosome-protected fragments were isolated by running samples on a 15% TBE-Urea gel with 10 bp DNA Ladder (Promega) and Marker-27nt and Marker-30nt (data not shown). […]

[3] = tested on: HLA-A, HLA-B, HLA-C, PSMB8, PSMB9, PSMB10 mRNA nuclear export; assay: Subcellular fractionation of nuclear and cytoplasmic mRNAs and proteins; settings: DUX4 pulse, IFNG, 44 hours, data not shown
Experimental: MB135iDUX4 myoblasts were pulsed with doxycycline for 4 hours, incubated for 24 hours, supplemented with 50 ng/mL IFNG for 16 hours, and harvested at a terminal time point of 44 hours. Samples divided for whole-cell lysate (WCL) and subcellular fractionation were suspended in 300 μL ice-cold Cyto-lysis buffer (10 mM Tris pH 7.4, 10 mM NaCl, 0.2% NP-40, 1 mM DTT in nuclease free water). Subcellular fractionation samples were centrifuged at 650 RCF to pellet nuclei while cytoplasmic lysate remained in the supernatant. WCL, cytoplasmic, nuclear RNA and protein were harvested for RT-qPCR and immunoblotting, respectively.

[4] = tested on: MHC class I proteins (HLA-A/B/C); assay: Immunoblot of IFNG-induced MHC class I protein, continuous or pulsed protocol, MB135 myoblasts; settings: 4 h doxycycline pulse, IFNG 28, 52 or 76 h later

Question: How did the “effect on IFNG-induced mRNAs of MHC class I / immunoproteasome genes, continuous protocol” value [1] turn out when “DUX4: human DUX4 protein SEQ ID NO:3 expressed from doxycycline inducible codon altered transgene SEQ ID NO:2” was run?
Answer: Its value is “profound inhibition of the IFNG-induction of the mRNA for MHC class I genes; also recorded: partially suppresses the IFNG induction of the mRNAs for PSMB8, 9, and 10; also recorded: partly blocked IFNG stimulation of HLA-A, HLA-B, HLA-C, PSMB8, PMSB9, and PSMB10 mRNA levels”.

Question: What about the “effect on IFNG-induced mRNAs of MHC class I / immunoproteasome genes, pulsed protocol” value [1] of the same substance?
Answer: The value was “little suppression of their mRNAs; also recorded: nearly full induction of these mRNAs; also recorded: still exhibited IFNG-induced mRNA levels significantly above untreated samples”.

Question: And the “transcripts with significantly reduced TE at the 5′UTR” value [2]?
Answer: The value was 26.7%.

Question: And the “transcripts with significantly reduced TE at the TSS” value [2]?
Answer: Its value is 13.9%.

Question: And the “transcripts with significantly reduced TE within the first exon” value [2]?
Answer: The value was 4.3%.

Question: And the “mRNA nuclear export and protein localization to the cytoplasm” value [3]?
Answer: Its value is “did not disrupt”.

Question: And the “duration of MHC class I protein suppression after a pulse” value [4]?
Answer: The value was “at Least Four Days; also recorded: becomes more pronounced between 24 and 72 hours after a pulse of DUX4; also recorded: for nearly four days; also recorded: suppressed MHC class I even four days later; also recorded: persists days after a DUX4 pulse”.

From patent US20250339531A1, “DUX4 POLYPEPTIDES AND NUCLEIC ACIDS FOR TREATING INFLAMMATORY AND AUTOIMMUNE CONDITIONS” (Fred Hutchinson Cancer Center, priority 2021, published 2025)
